These are literature values, as cited in patent publication US20140323444A1, “ANTI-INFLAMMATORY AND ANTIDIABETIC AGENTS” (priority 2013, published 2014).

In one data set the test system is prostaglandin synthesis. The settings on record: in vivo; compared with aspirin and indomethacin.
For data set [1] the following is noted: compared with placebo; in contrast to aspirin.
For another data set, the system named is platelet aggregation. The following applies: unlike aspirin.
Data set [2] has as its system patients with type 2 diabetes.

Each structure is given as a SMILES string.

For the molecule `O=C(Oc1ccccc1C(=O)O)c1ccccc1O` [salsalate, 2-(2-hydroxybenzoyl)oxybenzoic acid], the anti-inflammatory activity result in the data set with prostaglandin synthesis is “equivalent to aspirin and indomethacin”. The “fecal gastrointestinal blood loss” value in data set [1] was “no greater fecal gastrointestinal blood loss than placebo”. The “inhibition of platelet aggregation” value in the data set with platelet aggregation is recorded as “does not inhibit platelet aggregation”. Also, in data set [2] (in vivo), the adiponectin concentrations entry is on record as “increase adiponectin concentrations”, the circulating insulin result is listed as “increase circulating insulin” and the glucose utilization entry was “improve glucose utilization”. In data set [2] (patients with type 2 diabetes), the C-reactive protein result is given as “lowers”, the HbA1c levels result is “lowers”, the blood glucose result was “lowers” and the free fatty acid result is reported as “lowers”. The triglycerides entry in data set [2] (patients with type 2 diabetes) was “lowers”.
